Measurements from patent publication US20240150293A1, “SPIROCYCLOHEXANE DERIVATIVES, PHARMACEUTICAL COMPOSITIONS CONTAINING THEM AND THEIR USES AS ANTI-APOPTOTIC INHIBITORS” (LES LABORATOIRES SERVIER, priority 2021, published 2024).
Where two headings read alike, the source gives them in different places.

How the values were obtained:
Mcl-1 protein = Mcl-1 protein (UniProtKB Q07820) (Homo sapiens (Human), UniProt Q07820); test: Inhibition of Mcl-1 by the fluorescence polarisation assay (Example A, Method A); type: binding; details: fluorescence polarization assay
Sequence of Mcl-1 protein (Q07820 whole entry): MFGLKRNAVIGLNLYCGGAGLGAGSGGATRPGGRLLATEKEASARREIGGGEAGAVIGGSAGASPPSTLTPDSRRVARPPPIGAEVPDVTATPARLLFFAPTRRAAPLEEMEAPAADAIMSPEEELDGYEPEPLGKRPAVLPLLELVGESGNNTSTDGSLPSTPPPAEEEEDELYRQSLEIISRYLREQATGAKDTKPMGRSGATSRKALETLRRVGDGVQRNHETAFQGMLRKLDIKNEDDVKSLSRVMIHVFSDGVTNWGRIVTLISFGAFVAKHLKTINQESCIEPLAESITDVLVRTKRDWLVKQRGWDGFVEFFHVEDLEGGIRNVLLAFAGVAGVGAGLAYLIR
Summary of the method: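 Protein (5 nM) and fluorescein-tagged peptide tracer (1 nM) incubated with 11-point compound series for 2 h at room temperature in HEPES/NaCl/Tween 20 buffer, pH 7.4, 5% DMSO. Displacement read as decrease in polarisation; IC50 fitted by 4-parameter logistic, converted to Ki (cKi or eKi).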

[1] = tested on: H929 multiple myeloma tumor line; test: In vitro cytotoxicity, MTT assay (Example B, Method A); type: cell-based; details: H929 cells, 48 hours exposure, read-out: C50
Experimental: The cytotoxicity studies were carried out on the H929 multiple myeloma tumor line.
The cells are distributed onto microplates and exposed to the test compounds for 48 hours. The cell viability is then quantified by a colorimetric assay, the Microculture Tetrazolium Assay (Carmichael et al, Cancer Res. 1987, 47, 939-942).
The results are expressed in C50 which means concentration corresponding to […] of effect/inhibition.

Molecule `C[C@@H](COc1ccnc2sccc12)C[C@H]1Cc2ccccc2[C@]12CC[C@@](Nc1cccc(Cl)c1)(C(=O)O)CC2` [Example 604, (1r,2′S,4S)-4-(3-chloroanilino)-2′-{(2R)-2-methyl-3-[(thieno[2,3-b]pyridin-4-yl)oxy]propyl}-2′,3′-dihydrospiro[cyclohexane-1,1′-indene]-4-carboxylic acid] has a Ki (Mcl-1 protein) of 30 nM and an IC50 ([1]; Homo sapiens, NCI-H929, 48 h) of 694 nM.
For `O=C1c2ccccc2[C@]2(CC[C@@](Nc3cccc(Cl)c3)(C(=O)O)CC2)N1CCCOc1ccccc1` [Example 34, (1s,4s)-4-(3-chloroanilino)-3′-oxo-2′-(3-phenoxypropyl)-2′,3′-dihydrospiro[cyclohexane-1,1′-isoindole]-4-carboxylic acid], the Ki (Mcl-1 protein) was 648 nM and the IC50 ([1]; Homo sapiens, NCI-H929, 48 h) was 30000 nM.
`COCCOc1ccc2c(c1)[C@]1(CC[C@@](Nc3cccc(Cl)c3)(C(=O)O)CC1)C(c1cccc(Oc3ccccc3)c1)C2` (single isomer, unassigned) [Example 384, (1r,4r)-4-(3-chloroanilino)-6′-(2-methoxyethoxy)-2′-(3-phenoxyphenyl)-2′,3′-dihydrospiro[cyclohexane-1,1′-indene]-4-carboxylic acid] was tested, and the Ki (Mcl-1 protein) was 58.8 nM and the IC50 ([1]; Homo sapiens, NCI-H929, 48 h) was 11400 nM.
For `C[C@@H](COc1ccnc2ccsc12)C[C@@H]1Cc2ccccc2[C@]12CC[C@@](Nc1cccc(Cl)c1)(C(=O)O)CC2` [Example 590, (1r,2′R,4R)-4-(3-chloroanilino)-2′-{(2R)-2-methyl-3-[(thieno[3,2-b]pyridin-7-yl)oxy]propyl}-2′,3′-dihydrospiro[cyclohexane-1,1′-indene]-4-carboxylic acid], the Ki (Mcl-1 protein) was 19.2 nM and the IC50 ([1]; Homo sapiens, NCI-H929, 48 h) was 1170 nM.
Molecule `CC(C)C(COc1cccnc1)CC1Cc2ccccc2[C@]12CC[C@@](Nc1cccc(Cl)c1)(C(=O)O)CC2` (single isomer, unassigned) [Example 528, (1r,4r)-4-(3-chloroanilino)-2′-(3-methyl-2-{[(pyridin-3-yl)oxy]methyl}butyl)-2′,3′-dihydrospiro[cyclohexane-1,1′-indene]-4-carboxylic acid] has a Ki (Mcl-1 protein) of 3280 nM and an IC50 [1] of 30000 nM.
`O=C(O)[C@]1(Nc2cccc(Cl)c2)CC[C@@]2(CC1)c1ccccc1C[C@H]2c1ccc(Oc2ccccc2)cc1` [Example 358, (1r,2′S,4S)-4-(3-chloroanilino)-2′-(4-phenoxyphenyl)-2′,3′-dihydrospiro[cyclohexane-1,1′-indene]-4-carboxylic acid] gave a Ki (Mcl-1 protein) of 62.2 nM and an IC50 ([1]; Homo sapiens, NCI-H929, 48 h) of 7430 nM.
In the case of `O=C(O)[C@]1(Nc2cccc(Cl)c2)CC[C@@]2(CC1)c1ccccc1C[C@@H]2C[C@@H](COc1ccccc1)c1ccccc1` [Example 556, (1r,2′S,4S)-4-(3-chloroanilino)-2′-[(2R)-3-phenoxy-2-phenylpropyl]-2′,3′-dihydrospiro[cyclohexane-1,1′-indene]-4-carboxylic acid], the Ki (Mcl-1 protein) is reported as 7190 nM and the IC50 ([1]; Homo sapiens, NCI-H929, 48 h) is reported as 19300 nM.
`C[C@@H]1Cc2ccccc2[C@]12CC[C@@](Nc1cccc(Br)c1)(C(=O)O)CC2` [Example 144, (1r,2′R,4R)-4-(3-bromoanilino)-2′-methyl-2′,3′-dihydrospiro[cyclohexane-1,1′-indene]-4-carboxylic acid] gave a Ki (Mcl-1 protein) of 182 nM and an IC50 ([1]; Homo sapiens, NCI-H929, 48 h) of 30000 nM.
With `CC(C)C(COc1ccccc1)CC1Cc2ccccc2[C@]12CC[C@@](Nc1cccc(Cl)c1)(C(=O)O)CC2` (single isomer, unassigned) [Example 529, (1r,4r)-4-(3-chloroanilino)-2′-[3-methyl-2-(phenoxymethyl)butyl]-2′,3′-dihydrospiro[cyclohexane-1,1′-indene]-4-carboxylic acid] the Ki (Mcl-1 protein) was 4310 nM and the IC50 [1] was 25300 nM.
Work on `C[C@@H](COc1ccnc2c1CCC[C@@H]2O)C[C@H]1Cc2ccccc2[C@]12CC[C@@](Nc1cccc(Cl)c1)(C(=O)O)CC2` [Example 669, (1r,2′S,4S)-4-(3-chloroanilino)-2′-[(2R)-3-{[(8S)-8-hydroxy-5,6,7,8-tetrahydroquinolin-4-yl]oxy}-2-methylpropyl]-2′,3′-dihydrospiro[cyclohexane-1,1′-indene]-4-carboxylic acid] yielded a Ki (Mcl-1 protein) of 32.3 nM and an IC50 ([1]; Homo sapiens, NCI-H929, 48 h) of 1520 nM.
`O=C(O)[C@]1(Nc2cccc(Cl)c2)CC[C@@]2(CC1)c1ccccc1C[C@H]2c1cccc(OCc2ccccc2)c1` [Example 332, (1r,2′S,4S)-2′-[3-(benzyloxy)phenyl]-4-(3-chloroanilino)-2′,3′-dihydrospiro[cyclohexane-1,1′-indene]-4-carboxylic acid] was tested, and the Ki (Mcl-1 protein) was 475 nM and the IC50 ([1]; Homo sapiens, NCI-H929, 48 h) was 16400 nM.
Work on `O=C(O)[C@]1(Nc2cccc(Cl)c2)CC[C@@]2(CC1)c1ccccc1CC2CCCOc1ccnc2[nH]ccc12` (stereo partly drawn) [Example 445, (1r,4r)-4-(3-chloroanilino)-2′-{3-[(1H-pyrrolo[2,3-b]pyridin-4-yl)oxy]propyl}-2′,3′-dihydrospiro[cyclohexane-1,1′-indene]-4-carboxylic acid] yielded a Ki (Mcl-1 protein) of 75.3 nM and an IC50 ([1]; Homo sapiens, NCI-H929, 48 h) of 5350 nM.
In the case of `O=C(O)[C@]1(Nc2cccc(Cl)c2)CC[C@@]2(CC1)c1ccccc1C[C@H]2C[C@H](COc1cccnc1)c1ccccc1` [Example 550, (1r,2′R,4R)-4-(3-chloroanilino)-2′-{(2S)-2-phenyl-3-[(pyridin-3-yl)oxy]propyl}-2′,3′-dihydrospiro[cyclohexane-1,1′-indene]-4-carboxylic acid], the Ki (Mcl-1 protein) is reported as 5280 nM and the IC50 ([1]; Homo sapiens, NCI-H929, 48 h) is reported as 30000 nM.
`C[C@@H](COc1ccnc2occc12)C[C@H]1Cc2ccccc2[C@]12CC[C@@](Nc1cccc(Cl)c1)(C(=O)O)CC2` [Example 606, (1r,2′S,4S)-4-(3-chloroanilino)-2′-{(2R)-3-[(furo[2,3-b]pyridin-4-yl)oxy]-2-methylpropyl}-2′,3′-dihydrospiro[cyclohexane-1,1′-indene]-4-carboxylic acid] was tested, and the Ki (Mcl-1 protein) was 77.3 nM and the IC50 ([1]; Homo sapiens, NCI-H929, 48 h) was 2140 nM.
`CC1CCc2nccc(OC[C@H](C)CC3Cc4ccccc4[C@]34CC[C@@](Nc3cccc(Cl)c3)(C(=O)O)CC4)c21` (single isomer, unassigned) [Example 600] was tested, and the Ki (Mcl-1 protein) was 4.26 nM and the IC50 ([1]; Homo sapiens, NCI-H929, 48 h) was 512 nM.
With `C[C@@H](COc1ccnc2c1CCCCC2)C[C@H]1Cc2ccccc2[C@]12CC[C@@](Nc1cccc(Cl)c1)(C(=O)O)CC2` [Example 633, (1r,2′S,4S)-4-(3-chloroanilino)-2′-{(2R)-2-methyl-3-[(6,7,8,9-tetrahydro-5H-cyclohepta[b]pyridin-4-yl)oxy]propyl}-2′,3′-dihydrospiro[cyclohexane-1,1′-indene]-4-carboxylic acid] the Ki (Mcl-1 protein) was 5.3 nM and the IC50 ([1]; Homo sapiens, NCI-H929, 48 h) was 371 nM.
For `Cc1cnccc1OCCC[C@H]1Cc2ccccc2[C@]12CC[C@@](Nc1cccc(Cl)c1)(C(=O)O)CC2` [Example 449, (1r,2′S,4S)-4-(3-chloroanilino)-2′-{3-[(3-methylpyridin-4-yl)oxy]propyl}-2′,3′-dihydrospiro[cyclohexane-1,1′-indene]-4-carboxylic acid], the Ki (Mcl-1 protein) was 80 nM and the IC50 ([1]; Homo sapiens, NCI-H929, 48 h) was 9270 nM.
`O=C(O)[C@]1(Nc2cccc(Cl)c2)CC[C@@]2(CC1)c1ccccc1C[C@H]2C[C@@H](COc1ccncc1)c1ccccc1` [Example 553, (1r,2′R,4R)-4-(3-chloroanilino)-2′-{(2R)-2-phenyl-3-[(pyridin-4-yl)oxy]propyl}-2′,3′-dihydrospiro[cyclohexane-1,1′-indene]-4-carboxylic acid] gave a Ki (Mcl-1 protein) of 5640 nM and an IC50 ([1]; Homo sapiens, NCI-H929, 48 h) of 17500 nM.
With `C[C@H]1Cc2ccccc2[C@]12CC[C@@](Nc1cccc(Br)c1)(C(=O)O)CC2` [Example 145, (1r,2′S,4S)-4-(3-bromoanilino)-2′-methyl-2′,3′-dihydrospiro[cyclohexane-1,1′-indene]-4-carboxylic acid] the Ki (Mcl-1 protein) was 414 nM and the IC50 ([1]; Homo sapiens, NCI-H929, 48 h) was 30000 nM.
Molecule `O=C(O)[C@]1(Nc2cccc(Cl)c2)CC[C@]2(CC1)C(c1cccc(OCc3ccncc3)c1)=Cc1ccccc12` [Example 362, (1s,4s)-4-(3-chloroanilino)-2′-{3-[(pyridin-4-yl)methoxy]phenyl}spiro[cyclohexane-1,1′-indene]-4-carboxylic acid] has a Ki (Mcl-1 protein) of 174 nM and an IC50 ([1]; Homo sapiens, NCI-H929, 48 h) of 21600 nM.
In the case of `C[C@@H](COc1ccnc2c1CCC2)CC1Cc2ccccc2[C@]12CC[C@@](Nc1ccccc1)(C(=O)O)CC2` (stereo partly drawn) [Example 596, (1r,4R)-4-anilino-2′-{(2R)-3-[(6,7-dihydro-5H-cyclopenta[b]pyridin-4-yl)oxy]-2-methylpropyl}-2′,3′-dihydrospiro[cyclohexane-1,1′-indene]-4-carboxylic acid], the Ki (Mcl-1 protein) is reported as 31.2 nM and the IC50 ([1]; Homo sapiens, NCI-H929, 48 h) is reported as 1820 nM.
Work on `O=C(O)[C@]1(Nc2cccc(Cl)c2)CC[C@@]2(CC1)c1ccccc1CC2CCCOc1ccncc1C(F)(F)F` (stereo partly drawn) [Example 463, (1r,4r)-4-(3-chloroanilino)-2′-(3-{[3-(trifluoromethyl)pyridin-4-yl]oxy}propyl)-2′,3′-dihydrospiro[cyclohexane-1,1′-indene]-4-carboxylic acid] yielded a Ki (Mcl-1 protein) of 59.2 nM and an IC50 ([1]; Homo sapiens, NCI-H929, 48 h) of 8230 nM.
Molecule `O=C(O)[C@]1(Nc2cccc(Cl)c2)CC[C@@]2(CC1)c1ccccc1C[C@H]2C[C@H](COc1ccccc1)c1ccccc1` [Example 557, (1r,2′R,4R)-4-(3-chloroanilino)-2′-[(2S)-3-phenoxy-2-phenylpropyl]-2′,3′-dihydrospiro[cyclohexane-1,1′-indene]-4-carboxylic acid] has a Ki (Mcl-1 protein) of 1270 nM and an IC50 ([1]; Homo sapiens, NCI-H929, 48 h) of 20100 nM.
`O=C(O)[C@]1(Nc2cccc(Cl)c2)CC[C@]2(CC1)C(CCOc1cccc3[nH]ccc13)=Cc1ccccc12` [Example 192, (1r,4r)-4-(3-chloroanilino)-2′-{2-[(1H-indol-4-yl)oxy]ethyl}spiro[cyclohexane-1,1′-indene]-4-carboxylic acid] gave a Ki (Mcl-1 protein) of 61.5 nM and an IC50 ([1]; Homo sapiens, NCI-H929, 48 h) of 4190 nM.
